Test results reported in ChEMBL document CHEMBL3885861, “Open TG-GATES”.

Organism: Rattus norvegicus
Assay: Open TG-GATES - Regimen: Daily Repeat
Format: toxicity, organism-based, Sprague-Dawley
Set-up: regimen Daily Repeat, gender Male, age 6 weeks
Settings: in vivo, po, 1000 mg/kg, route gavage, dose level High; for APTT / Bas / Eos / Fbg / Hb / Ht / Lym / MCH / MCHC / MCV / Mono / Neu / PT / Plat / RBC / Ret / WBC: tissue Blood; for KIDNEY_L / KIDNEY_R / KIDNEY_TOTAL: tissue Kidney; for LIVER: tissue Liver; for A/G / ALP / ALT / AST / BUN / CRE / Ca / Cl / DBIL / GLC / IP / K / LDH / Na / PL / RALB / TBIL / TC / TG / TP / gamma-GTP: tissue Plasma

CCOC(=O)CCC(=O)O[C@H]1[C@H](O[C@@H]2[C@@H](C)[C@H](O[C@H]3C[C@@](C)(OC)[C@@H](O)[C@H](C)O3)[C@@H](C)C(=O)O[C@H](CC)[C@@](C)(O)[C@H](O)[C@@H](C)C(=O)[C@H](C)C[C@@]2(C)O)O[C@H](C)C[C@@H]1N(C)C [ERYTHROMYCIN ETHYLSUCCINATE]
TERMINAL_BW (72 h, time 3 day): 226.1 g | APTT (72 h, time 3 day): 20.6 s | Bas (72 h, time 3 day): 0% | Eos (72 h, time 3 day): 1% | Fbg (72 h, time 3 day): 325 mg/dL | Hb (72 h, time 3 day): 14.4 g/dL | Ht (72 h, time 3 day): 41.8% | Lym (72 h, time 3 day): 86.4% | MCH (72 h, time 3 day): 21.2 pg | MCHC (72 h, time 3 day): 34.4% | MCV (72 h, time 3 day): 61.6 fL | Mono (72 h, time 3 day): 3% | Neu (72 h, time 3 day): 8.6% | PT (72 h, time 3 day): 15.7 s | Plat (72 h, time 3 day): 125 x10_4/uL | RBC (72 h, time 3 day): 679.6 x10_4/ul | Ret (72 h, time 3 day): 3.4% | WBC (72 h, time 3 day): 68.6 x10_2/uL | KIDNEY_L (72 h, time 3 day): 1 g | KIDNEY_R (72 h, time 3 day): 1 g | KIDNEY_TOTAL (72 h, time 3 day): 2 g | LIVER (72 h, time 3 day): 9.5 g | A/G (72 h, time 3 day): 1.2 | ALP (72 h, time 3 day): 1860.4 IU/L | ALT (72 h, time 3 day): 38.2 IU/L | AST (72 h, time 3 day): 67.4 IU/L | BUN (72 h, time 3 day): 17 mg/dL | CRE (72 h, time 3 day): 0.2 mg/dL | Ca (72 h, time 3 day): 10.5 mg/dL | Cl (72 h, time 3 day): 108.4 meq/L | DBIL (72 h, time 3 day): 0.002 mg/dL | GLC (72 h, time 3 day): 178 mg/dL | IP (72 h, time 3 day): 7.2 mg/dL | K (72 h, time 3 day): 4.2 meq/L | LDH (72 h, time 3 day): 198.2 IU/L | Na (72 h, time 3 day): 141.8 meq/L | PL (72 h, time 3 day): 155.6 mg/dL | RALB (72 h, time 3 day): 3.1 g/dL | TBIL (72 h, time 3 day): 0.032 mg/dL | TC (72 h, time 3 day): 95.2 mg/dL | TG (72 h, time 3 day): 58.4 mg/dL | TP (72 h, time 3 day): 5.7 g/dL | gamma-GTP (72 h, time 3 day): 1.4 IU/L | TERMINAL_BW ([…], time 7 day): 250.4 g | TERMINAL_BW ([…], time 14 day): 298.7 g | TERMINAL_BW ([…], time 28 day): 358.6 g | APTT ([…], time 7 day): 21.4 s | Bas ([…], time 7 day): 0% | Eos ([…], time 7 day): 1% | Fbg ([…], time 7 day): 338.6 mg/dL | Hb ([…], time 7 day): 13.6 g/dL | Ht ([…], time 7 day): 40.3% | Lym ([…], time 7 day): 81.6% | MCH ([…], time 7 day): 20.5 pg | MCHC ([…], time 7 day): 33.9% | MCV ([…], time 7 day): 60.4 fL | Mono ([…], time 7 day): 2.2% | Neu ([…], time 7 day): 14% | PT ([…], time 7 day): 16.6 s | Plat ([…], time 7 day): 112.5 x10_4/uL | RBC ([…], time 7 day): 666.4 x10_4/ul | Ret ([…], time 7 day): 3.8% | WBC ([…], time 7 day): 93.3 x10_2/uL | APTT ([…], time 14 day): 20.5 s | Bas ([…], time 14 day): 0% | Eos ([…], time 14 day): 0.8% | Fbg ([…], time 14 day): 327.6 mg/dL | Hb ([…], time 14 day): 14.2 g/dL | Ht ([…], time 14 day): 40.6% | Lym ([…], time 14 day): 83% | MCH ([…], time 14 day): 20.5 pg | MCHC ([…], time 14 day): 34.8% | MCV ([…], time 14 day): 59 fL | Mono ([…], time 14 day): 3.2% | Neu ([…], time 14 day): 11.4% | PT ([…], time 14 day): 16.2 s | Plat ([…], time 14 day): 107.4 x10_4/uL | RBC ([…], time 14 day): 690 x10_4/ul | Ret ([…], time 14 day): 4.6% | WBC ([…], time 14 day): 91.9 x10_2/uL | APTT ([…], time 28 day): 24.9 s | Bas ([…], time 28 day): 0% | Eos ([…], time 28 day): 1% | Fbg ([…], time 28 day): 340.4 mg/dL | Hb ([…], time 28 day): 15.2 g/dL | Ht ([…], time 28 day): 43.7% | Lym ([…], time 28 day): 82.4% | MCH ([…], time 28 day): 18.9 pg | MCHC ([…], time 28 day): 34.7% | MCV ([…], time 28 day): 54.3 fL | Mono ([…], time 28 day): 2.2% | Neu ([…], time 28 day): 12.6% | PT ([…], time 28 day): 16.3 s | Plat ([…], time 28 day): 102.9 x10_4/uL | RBC ([…], time 28 day): 804.4 x10_4/ul | Ret ([…], time 28 day): 2.3% | WBC ([…], time 28 day): 79.8 x10_2/uL | KIDNEY_L ([…], time 7 day): 1.1 g | KIDNEY_R ([…], time 7 day): 1.1 g | KIDNEY_TOTAL ([…], time 7 day): 2.2 g | KIDNEY_L ([…], time 14 day): 1.2 g | KIDNEY_R ([…], time 14 day): 1.2 g | KIDNEY_TOTAL ([…], time 14 day): 2.4 g | KIDNEY_L ([…], time 28 day): 1.4 g | KIDNEY_R ([…], time 28 day): 1.4 g | KIDNEY_TOTAL ([…], time 28 day): 2.8 g | LIVER ([…], time 7 day): 10.1 g | LIVER ([…], time 14 day): 12.3 g | LIVER ([…], time 28 day): 13.8 g | A/G ([…], time 7 day): 1.1 | ALP ([…], time 7 day): 1998.2 IU/L | ALT ([…], time 7 day): 35.2 IU/L | AST ([…], time 7 day): 71.8 IU/L | BUN ([…], time 7 day): 18.2 mg/dL | CRE ([…], time 7 day): 0.2 mg/dL | Ca ([…], time 7 day): 10.5 mg/dL | Cl ([…], time 7 day): 108.2 meq/L | DBIL ([…], time 7 day): 0 mg/dL | GLC ([…], time 7 day): 188.6 mg/dL | IP ([…], time 7 day): 7.4 mg/dL | K ([…], time 7 day): 4.1 meq/L | LDH ([…], time 7 day): 156.6 IU/L | Na ([…], time 7 day): 141.8 meq/L | PL ([…], time 7 day): 155 mg/dL | RALB ([…], time 7 day): 2.8 g/dL | TBIL ([…], time 7 day): 0.01 mg/dL | TC ([…], time 7 day): 84.8 mg/dL | TG ([…], time 7 day): 97.6 mg/dL | TP ([…], time 7 day): 5.4 g/dL | gamma-GTP ([…], time 7 day): 1.6 IU/L | A/G ([…], time 14 day): 1.1 | ALP ([…], time 14 day): 1716 IU/L | ALT ([…], time 14 day): 36 IU/L | AST ([…], time 14 day): 68.8 IU/L | BUN ([…], time 14 day): 19.6 mg/dL | CRE ([…], time 14 day): 0.2 mg/dL | Ca ([…], time 14 day): 10.7 mg/dL | Cl ([…], time 14 day): 108.6 meq/L | DBIL ([…], time 14 day): 0 mg/dL | GLC ([…], time 14 day): 187 mg/dL | IP ([…], time 14 day): 6.6 mg/dL | K ([…], time 14 day): 4.4 meq/L | LDH ([…], time 14 day): 161 IU/L | Na ([…], time 14 day): 142 meq/L | PL ([…], time 14 day): 163.2 mg/dL | RALB ([…], time 14 day): 2.9 g/dL | TBIL ([…], time 14 day): 0.006 mg/dL | TC ([…], time 14 day): 88.8 mg/dL | TG ([…], time 14 day): 140.8 mg/dL | TP ([…], time 14 day): 5.6 g/dL | gamma-GTP ([…], time 14 day): 1.8 IU/L | A/G ([…], time 28 day): 1.1 | ALP ([…], time 28 day): 1257.4 IU/L | ALT ([…], time 28 day): 37 IU/L | AST ([…], time 28 day): 67.6 IU/L | BUN ([…], time 28 day): 19.2 mg/dL | CRE ([…], time 28 day): 0.2 mg/dL | Ca ([…], time 28 day): 10.4 mg/dL | Cl ([…], time 28 day): 108.8 meq/L | DBIL ([…], time 28 day): 0.002 mg/dL | GLC ([…], time 28 day): 173 mg/dL | IP ([…], time 28 day): 6.9 mg/dL | K ([…], time 28 day): 4.1 meq/L | LDH ([…], time 28 day): 132.8 IU/L | Na ([…], time 28 day): 141.8 meq/L | PL ([…], time 28 day): 138 mg/dL | RALB ([…], time 28 day): 3 g/dL | TBIL ([…], time 28 day): 0.012 mg/dL | TC ([…], time 28 day): 75.2 mg/dL | TG ([…], time 28 day): 99.6 mg/dL | TP ([…], time 28 day): 5.7 g/dL | gamma-GTP ([…], time 28 day): 1.6 IU/L
